Results on 17 substances are retold here after US20110092445A1, “Amyloid ß peptide analogues, oligomers thereof, processes for preparing and composi-tions comprising said analogues or oligomers, and their uses” (Abbott Laboratories, priority 2008, published 2011).

For data set [1], the system named is globulomer-specific antibodies (mAb 5F7, mAb 7C6, rabbit polyclonal antiserum 5599). The data set is described as follows: Direct ELISA, response to globulomer-specific antibodies. The format is binding. To be noted: for display of the globulomer epitope: oligomers before thermolysin truncation, 5F7, 7C6, antiserum 5599; for reactivity of cross-linked oligomers to the globulomer-specific antibodies: after intra-molecular cross-linking, FIGS. 14-16, 18; for change in affinity to the globulomer-specific antibodies upon truncation with thermolysin: after thermolysin truncation versus untruncated oligomer. From the text: (§1) Materials: Microtiterplates were Nunc Immuno Plate, Maxi-Sorb Surface, flat bottom, (Catalogue #439454). The conjugate (secondary antibody) was Donkey anti-mouse HRPO conjugate, Jackson Immuno Research, (Catalogue #715-035-150). The HRPO Substrate was 3,3′,5′5′-Tetramethylbenzidine Liquid substrate (TMB), Sigma, (Catalogue #T4444). Non-fat Dry Milk (NFDM), was from BioRad, (Catalogue #170-6404). All other chemicals were from conventional sources.
(§2) Buffers and solutions: PBST buffer: Sigma PBS made with 0.05% Tween 20. PBST with 0.5% BSA was made by dissolving […] BSA in 100 mL PBST. Blocking solution was 3% NFDM in PBST. Conjugate diluent was 1% NFDM in PBST. The coating buffer was 100 mM NaHCO3 pH8.2. The HRPO Stop Solution was 2 M H2SO4.
(§3) Coating the plates: The Aβ globulomer to be tested was diluted to 1.0 μg/mL in coating buffer. 100 μL were added to each well to be coated. Plate was sealed with sealing film and left at 4° C. overnight.
(§4) Plate Blocking: The coating solution was removed from the wells. Each well was optionally washed 2-3× with 150 μL of PBST. 300 μL of blocking solution were added (3% NFDM in PBST). Plate was covered with plate sealing film and incubated for ˜2 hrs at room temperature, with agitation.
(§5) Primary Antibody: The blocking solution was removed from the wells. Each well was optionally washed 2-3× with 150 μL of PBST. 100 μL of primary antibody solutions were added. For the full length N-Met Aβ(1-42) globulomer, solutions of 0.04 to 100 μg/mL of antibody 5F7 were used. The antibody was diluted using PBST with 0.5% BSA. The plate was covered with plate sealing film and incubated for ˜2 to 3 hrs at room temperature with agitation.
Secondary Antibody (HRPO Conjugate): The primary antibody solution was removed from the wells. Each well was washed 2-3× with 150 μL of PBST. 200 μL of secondary antibody (HRPO conjugate) solution diluted 1:5000 in PBST with 1% NFDM were added. The plate was covered with plate sealing film and incubated for ˜1 hr at room temperature with agitation.
Substrate Development: The conjugate solution was removed from the wells. Each well was washed 2-3× with 200 μL of PBST. 100 μL of HRPO substrate solution were added to each well. Color was allowed to develop under observation. It turned blue. The reaction was usually done in 5-10 minutes at room temperature. 50 μL of stop solution were added to each well. The blue color turned yellow. Absorbance at 450 nm was read using a microtiterplate reader within 30 min of addition of the stop solution.
A general note: In an ELISA, binding on a coated surface is turned into a signal by an enzyme label.

For data set [2] the following is noted: for homogeneity of oligomers in sedimentation velocity experiments / hydrodynamic properties relative to wild-type N-Met Aβ(1-42) (truncated) globulomer: FIG. 5A-5C; for hydrodynamic homogeneity after truncation at residue 20 by thermolysin: presence (FIG. 5B) and absence (FIG. 5C) of 0.05% SDS.
Method: Samples were loaded into standard two-sector cells using sapphire windows. All samples were examined using either a 4-hole or an 8-hole rotor.
Conditions were as follows: temperature: 20° C., rotor speed: 42,000 rpm, interference data was collected, absorbance data was collected at 280 nm in continuous mode with a radial step size of 0.003 cm. One data point was collected per step (no signal averaging). Typically, 200 scans or less were collected over the course of no more than 9 hrs.
A continuous S distribution analysis (C(s) analysis) was done as implemented in Sedfit v8.9 (P. Schuck (2000), “Size distribution analysis of macromolecules by sedimentation velocity ultracentrifugation and Lamm equation modeling”, Biophysical Journal 78:1606-1619) to understand the overall heterogeneity of the samples. Both radial and time independent noise were fit and removed from the data using a maximal entropy algorithm.
For data set [3], the system named is globulomer-specific monoclonal antibody 5F7. Description: Direct ELISA, binding of globulomer-specific mAb 5F7 to coated oligomer. The arrangement: species or system murine. Particulars: FIG. 3A; for binding of the globulomer-specific monoclonal antibody 5F7 (direct ELISA response): N-Met Aβ(1-42) globulomer compared with mutant oligomer.
Text: as §1, §2, §3, §4, §5
Secondary Antibody (HRPO Conjugate): The primary antibody solution was removed from the wells. Each well was washed 2-3× with 150 μL of PBST. 200 μL of secondary antibody (HRPO conjugate) solution diluted 1:5000 in PBST with 1% NFDM were added. […]
Substrate Development: The conjugate solution was removed from the wells. […] Absorbance at 450 nm was read using a microtiterplate reader within 30 min of addition of the stop solution.

Bridges are numbered along the chain shown (N, C = ends). Where no end group is shown, it is not given here. The star is where a group is joined. Acm = CC(=O)NC*

Regarding “(17C(ACM), 34C(ACM)) Aβ(16-35) oligomer (KC(Acm)VFFAEDVGSNKGAIIGC(Acm)M; also: oligomer; UniProt P05067 687-706, looked up, variant L17C L34C) [3l]”, the “display of the globulomer epitope” value in data set [1] is “not able to form oligomers that displayed the globulomer epitope”.

Regarding “(17K, 34C) N-Met Aβ(1-42) oligomer [example 3w]”, the “display of the globulomer epitope” value in data set [1] is listed as “display the globulomer epitope”.

Take “(17K, 34E) N-Met Aβ(1-42) oligomer [example 3x]”: the “display of the globulomer epitope” value in data set [1] is recorded as “display the globulomer epitope”.

As to “Aβ(16-35)-amide oligomer (KLVFFAEDVGSNKGAIIGLM-NH2; also: oligomer; UniProt P05067 687-706, looked up, fragment) [example 3m]”, the “display of the globulomer epitope” value in data set [1] is on record as “not able to form oligomers that displayed the globulomer epitope”.

In the case of “Dissulfide stabilized (17C, 34C) N-Met Aβ(1-42) oligomer [example 2a]”, in data set [2], the “homogeneity of oligomers in sedimentation velocity experiments” value (“homogeneity of oligomers” for short) is on record as “formed homogeneous oligomers” and the “hydrodynamic properties relative to wild-type N-Met Aβ(1-42) (truncated) globulomer” value was “displayed better hydrodynamic properties”. For the same substance, the “binding of the globulomer-specific monoclonal antibody 5F7 (direct ELISA response)” value in data set [3] is given as “almost identical”. Besides, the “display of the globulomer-specific epitope” value in data set [3] (mAb 5F7) is “still displays the globulomer-specific epitope”.

Take “Disulfide-stabilized (17C, 34C) Aβ(12-42) oligomer (VHHQKCVFFAEDVGSNKGAIIGCMVGGVVIA; disulfide 6-23; also: oligomer; UniProt P05067 683-713, looked up, variant L17C L34C) [example 4k]”: in data set [1], the “display of the globulomer epitope” value is “displayed the globulomer epitope”.

With “Disulfide-stabilized (17C, 34C) Aβ(16-42) oligomer (KCVFFAEDVGSNKGAIIGCMVGGVVIA-OH; disulfide 2-19; also: oligomer; UniProt P05067 687-713, looked up, variant L17C L34C) [example 4s]”, the “display of the globulomer epitope” value in data set [1] is reported as “displayed the globulomer epitope”.

For the substance “EDC/NHS-linked (17K, 34E) N-Met Aβ(1-42) oligomer [example 4x]”, in data set [1], the “reactivity of cross-linked oligomers to the globulomer-specific antibodies” value (“reactivity of cross-linked oligomers” for short) is listed as “still display the appropriate reactivity” and the “change in affinity to the globulomer-specific antibodies upon truncation with thermolysin” value (from here on “change in affinity”) is recorded as “expected increase in affinity”.

“MBS-linked (17K, 34C) N-Met Aβ(1-42) oligomer [example 4w2]”: in data set [1], the “reactivity of cross-linked oligomers” value was “still display the appropriate reactivity” and the “change in affinity” value is listed as “expected increase in affinity”.

With “N-Met Aβ(1-42) globulomer [reference compound]”, in data set [2], the “homogeneity of oligomers” value is reported as “formed homogeneous oligomers” and the “hydrodynamic homogeneity after truncation at residue 20 by thermolysin” value is reported as “too heterogeneous to be examined”. For the same substance, the “binding of the globulomer-specific monoclonal antibody 5F7 (direct ELISA response)” value in data set [3] is “almost identical”.

For “SIAB-linked (17K, 34C) N-Met Aβ(1-42) oligomer [example 4w3]”, in data set [1], the “reactivity of cross-linked oligomers” value is “still display the appropriate reactivity” and the “change in affinity” value was “expected increase in affinity”.

Regarding “SMCC-linked (17K, 34C) N-Met Aβ(1-42) oligomer [example 4w1]”, in data set [1], the “reactivity of cross-linked oligomers” value was “still display the appropriate reactivity” and the “change in affinity” value is “expected increase in affinity”.

For the substance “Thermolysin truncation of [(17C, 34C) Aβ(16-35)-amide, cyclic] oligomer [example 5o]”, in data set [1], the “change in affinity” value was “expected increase in affinity”.

Regarding “Thermolysin truncation of disulfide stabilized (17C, 34C) Aβ(12-42) oligomer [example 5k]”, the “change in affinity” value in data set [1] was “expected increase in affinity”.

For the substance “Thermolysin truncation of disulfide stabilized (17C, 34C) Aβ(16-42) oligomer [example 5s]”, the “change in affinity” value in data set [1] is recorded as “expected increase in affinity”.

In the case of “Thermolysin truncation of disulfide stabilized (17C, 34C) N-Met Aβ(1-42) oligomer [example 5y]”, in data set [2], the “homogeneity of oligomers” value is on record as “formed homogeneous oligomers”, the “hydrodynamic properties relative to wild-type N-Met Aβ(1-42) (truncated) globulomer” value was “displayed better hydrodynamic properties” and the “hydrodynamic homogeneity after truncation at residue 20 by thermolysin” value is reported as “remains significantly more hydrodynamically homogeneous”.

In the case of “[(17C, 34C) Aβ(16-35)-amide, cyclic] oligomer (KCVFFAEDVGSNKGAIIGCM-NH2; disulfide 2-19; also: oligomer; UniProt P05067 687-706, looked up, variant L17C L34C) [example 4o]”, the “display of the globulomer epitope” value in data set [1] is “displayed the globulomer epitope”.
